Reference: patent US20240238424A1, “HETEROBIFUNCTIONAL COMPOUNDS AND METHODS OF TREATING DISEASE” (Halda Therapeutics OpCo, Inc., priority 2021, published 2024)
One block for each compound: values may come before it.

Tests used:
GSPT1 = molecular target: T1, GSPT1 (Homo sapiens, UniProt P15170+Q96SW2); test: GSPT1 HiBit degradation assay; type: cell-based; conditions: Table 3; HEK293 LgBiT cells expressing GSPT1_HiBiT, luminescence after 6 hours
T1 construct: host or cells: HEK293 LgBiT cell line
T1 sequence (P15170 whole entry): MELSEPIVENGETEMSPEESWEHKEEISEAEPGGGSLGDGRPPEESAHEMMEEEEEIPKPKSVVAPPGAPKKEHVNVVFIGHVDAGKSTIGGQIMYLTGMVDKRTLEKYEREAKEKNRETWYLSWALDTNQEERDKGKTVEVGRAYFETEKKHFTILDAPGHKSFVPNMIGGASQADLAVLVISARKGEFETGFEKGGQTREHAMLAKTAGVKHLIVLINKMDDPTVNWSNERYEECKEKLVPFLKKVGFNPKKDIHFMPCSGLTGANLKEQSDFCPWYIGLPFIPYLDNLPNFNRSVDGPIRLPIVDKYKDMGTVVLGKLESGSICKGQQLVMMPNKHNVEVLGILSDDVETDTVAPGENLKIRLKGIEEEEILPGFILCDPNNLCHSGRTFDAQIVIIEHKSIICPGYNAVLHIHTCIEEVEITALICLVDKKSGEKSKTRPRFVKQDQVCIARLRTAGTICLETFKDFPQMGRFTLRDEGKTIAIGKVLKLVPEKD
T1 sequence (Q96SW2 whole entry): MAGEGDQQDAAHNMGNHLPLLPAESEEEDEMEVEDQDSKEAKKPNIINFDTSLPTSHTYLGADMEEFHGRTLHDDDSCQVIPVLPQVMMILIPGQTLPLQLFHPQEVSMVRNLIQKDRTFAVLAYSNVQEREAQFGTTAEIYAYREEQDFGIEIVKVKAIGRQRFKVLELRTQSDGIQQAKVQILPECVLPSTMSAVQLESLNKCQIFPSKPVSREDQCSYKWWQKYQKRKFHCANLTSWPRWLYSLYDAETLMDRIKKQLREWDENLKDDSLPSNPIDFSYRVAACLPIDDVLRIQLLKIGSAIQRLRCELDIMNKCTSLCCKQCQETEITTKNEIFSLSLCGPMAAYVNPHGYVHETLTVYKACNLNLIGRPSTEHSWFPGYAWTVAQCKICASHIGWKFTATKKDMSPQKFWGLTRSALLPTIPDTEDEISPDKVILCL
T1 sequence (Q16531 whole entry partner): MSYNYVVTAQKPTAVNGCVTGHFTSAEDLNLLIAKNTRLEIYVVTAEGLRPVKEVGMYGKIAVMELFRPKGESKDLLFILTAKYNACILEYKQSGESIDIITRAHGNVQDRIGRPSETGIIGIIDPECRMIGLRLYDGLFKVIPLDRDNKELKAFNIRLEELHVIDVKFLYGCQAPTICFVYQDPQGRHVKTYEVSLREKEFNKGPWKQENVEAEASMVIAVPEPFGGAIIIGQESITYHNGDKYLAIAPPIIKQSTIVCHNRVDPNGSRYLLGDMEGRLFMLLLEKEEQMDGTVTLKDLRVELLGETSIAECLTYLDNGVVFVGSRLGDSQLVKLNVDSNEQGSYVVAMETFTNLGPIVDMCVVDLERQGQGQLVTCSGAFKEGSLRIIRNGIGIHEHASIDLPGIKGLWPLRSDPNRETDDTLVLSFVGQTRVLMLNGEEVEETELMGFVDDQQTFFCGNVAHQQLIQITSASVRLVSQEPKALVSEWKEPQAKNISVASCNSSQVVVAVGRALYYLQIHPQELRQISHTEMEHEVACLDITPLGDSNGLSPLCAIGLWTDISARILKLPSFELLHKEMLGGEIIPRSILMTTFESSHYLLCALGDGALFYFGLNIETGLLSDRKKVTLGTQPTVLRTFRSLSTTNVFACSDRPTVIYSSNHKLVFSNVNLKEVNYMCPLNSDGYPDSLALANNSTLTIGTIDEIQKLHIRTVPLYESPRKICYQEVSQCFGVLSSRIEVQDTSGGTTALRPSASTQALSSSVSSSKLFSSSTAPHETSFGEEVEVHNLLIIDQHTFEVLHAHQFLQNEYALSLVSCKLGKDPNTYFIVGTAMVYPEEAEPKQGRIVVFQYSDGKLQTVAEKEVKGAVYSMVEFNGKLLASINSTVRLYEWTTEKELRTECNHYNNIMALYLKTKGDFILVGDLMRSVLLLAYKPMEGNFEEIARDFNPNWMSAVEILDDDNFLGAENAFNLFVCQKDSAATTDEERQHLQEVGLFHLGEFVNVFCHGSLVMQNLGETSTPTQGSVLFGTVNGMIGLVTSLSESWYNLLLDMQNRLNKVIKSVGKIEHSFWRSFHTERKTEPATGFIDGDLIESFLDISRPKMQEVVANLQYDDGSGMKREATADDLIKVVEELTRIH
In short: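 Degradation readout is luminescence at 6 h, with DC50 taken as the concentration giving 50% GSPT1 loss. Compound titrations were added together with endurazine (0.5× final) to HEK293 LgBiT/GSPT1-HiBiT cells seeded the day before and kept at 37 °C.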

HeLa KRas G12C cells = test: Cellular growth inhibition assay (CTG), HeLa KRas G12C cells; type: cell-based; conditions: Homo sapiens, CellTiter-Glo 2.0, day-5
Protocol: Cells were seeded in Poly-D-lysine-treated 384-well white plates, with 25 μL cell suspension at 250 cells/well for continuous treatments, and 1000 cells/well for washout treatments. Plates were spun at 300×g for 3 minutes, and cells were cultured at 37° C. with 5% CO2 in a humidified tissue culture incubator.
After 24 hours, the test compounds were diluted with cell culture medium in 96 deep well plates. DMSO was used as a negative control. A 25 μL aliquot of compound-containing medium was added in each well, at a final top concentration of 10 μM or 30 μM test compound, with 3-fold dilutions. For washout assays, after 4 hours, cell medium with compound was removed, and the cells were washed with 75p L fresh medium. Plates were then spun at 300×g for 3 minutes and replaced with 50 μL fresh medium in each well. Plates were then spun at 300×g for 3 minutes again and cultured at 37° C. with 5% CO2.
At day-0 and day-5 of compound treatments, cell viability was quantified with CellTiter-Glo 2.0 (Promega). After equilibrating cell plates at room temperature for 30 minutes, 25 μL CellTiter-Glo 2.0 reagent was dispensed into each well (on top of 50 μL of cell culture). Plates were mixed on a shaker for 2 minutes at 500 rpm, followed by a 10-minute incubation at room temperature. Luminescence readings were measured with an EnVision Plate Reader. Data was normalized to DMSO treated day-0 cell wells. A four-parameter non-linear regression curve fit was applied to dose-response data in Prism to determine the half maximal growth inhibitory concentration (GI50) of each compound.

DC50 (GSPT1): 5 to 10 µM
GI50 (HeLa KRas G12C cells): > 10 µM
Structure (SMILES): C=CC(=O)N1CCN(c2nc(NCCOCCOCCOCCOCCOCCOCCc3cc(Cl)cc(NC(=O)NCc4ccc5c(c4)CN(C4CCC(=O)NC4=O)C5=O)c3)nc3c(F)c(-c4cc(O)cc5ccccc45)c(Cl)cc23)CC1 (stereo not drawn) [Compound I-7, 1-[3-chloro-5-[2-[2-[2-[2-[2-[2-[2-[[6-chloro-8-fluoro-7-(3-hydroxy-1-naphthyl)-4-(4-prop-2-enoylpiperazin-1-yl)quinazolin-2-yl]amino]ethoxy]ethoxy]ethoxy]ethoxy]ethoxy]ethoxy]ethyl]phenyl]-3-[[2-(2,6-dioxo-3-piperidyl)-1-oxo-isoindolin-5-yl]methyl]urea]

DC50 (GSPT1): > 10 µM
GI50 (HeLa KRas G12C cells): > 10 µM
Structure (SMILES): C=CC(=O)N1CCN(c2nc(NCCCCCCCCc3cccc4c3CN(C3CCC(=O)NC3=O)C4=O)nc3c(F)c(-c4cc(O)cc5ccccc45)c(Cl)cc23)CC1 (stereo not drawn) [Compound I-8, 3-(4-(8-((4-(4-acryloylpiperazin-1-yl)-6-chloro-8-fluoro-7-(3-hydroxynaphthalen-1-yl)quinazolin-2-yl)amino)octyl)-1-oxoisoindolin-2-yl)piperidine-2,6-dione]

DC50 (GSPT1): > 10 µM
GI50 (HeLa KRas G12C cells): > 10 µM
Structure (SMILES): C=C(F)C(=O)N1CCN(c2nc(OC[C@@H]3CCCN3CCOCCOCCOCCOCCOCCOCCOCCOCCc3cc(Cl)cc(NC(=O)NCc4ccc5c(c4)CN(C4CCC(=O)NC4=O)C5=O)c3)nc3c2CCN(c2cccc4cccc(Cl)c24)C3)C[C@@H]1CC#N (stereo partly drawn) [Compound I-11, 1-[3-chloro-5-[2-[2-[2-[2-[2-[2-[2-[2-[2-[(2S)-2-[[7-(8-chloro-1-naphthyl)-4-[(3S)-3-(cyanomethyl)-4-(2-fluoroprop-2-enoyl)piperazin-1-yl]-6,8-dihydro-5H-pyrido[3,4-d]pyrimidin-2-yl]oxymethyl]pyrrolidin-1-yl]ethoxy]ethoxy]ethoxy]ethoxy]ethoxy]ethoxy]ethoxy]ethoxy]ethyl]phenyl]-3-[[2-(2,6-dioxo-3-piperidyl)-1-oxo-isoindolin-5-yl]methyl]urea]

Second part, the compound before the results:

Structure (SMILES): C=CC(=O)N1CCN(c2nc(NCCCCCCCCNc3cccc4c3CN(C3CCC(=O)NC3=O)C4=O)nc3c(F)c(-c4cc(O)cc5ccccc45)c(Cl)cc23)CC1 (stereo not drawn) [Compound I-6, 3-(4-((8-((4-(4-acryloylpiperazin-1-yl)-6-chloro-8-fluoro-7-(3-hydroxynaphthalen-1-yl)quinazolin-2-yl)amino)octyl)-amino)-1-oxoisoindolin-2-yl)piperidine-2,6-dione]
DC50 (GSPT1): > 10 µM
GI50 (HeLa KRas G12C cells): > 10 µM

Structure (SMILES): C=C(F)C(=O)N1CCN(c2nc(OC[C@@H]3CCCN3CCOCCOCCOCCOCCOCCOCCOCCOCCOc3cc(Cl)cc(NC(=O)NCc4ccc5c(c4)CN(C4CCC(=O)NC4=O)C5=O)c3)nc3c2CCN(c2cccc4cccc(Cl)c24)C3)C[C@@H]1CC#N (stereo partly drawn) [Compound I-9, 1-[3-chloro-5-[2-[2-[2-[2-[2-[2-[2-[2-[2-[(2S)-2-[[7-(8-chloro-1-naphthyl)-4-[(3S)-3-(cyanomethyl)-4-(2-fluoroprop-2-enoyl)piperazin-1-yl]-6,8-dihydro-5H-pyrido[3,4-d]pyrimidin-2-yl]oxymethyl]pyrrolidin-1-yl]ethoxy]ethoxy]ethoxy]ethoxy]ethoxy]ethoxy]ethoxy]ethoxy]ethoxy]phenyl]-3-[[2-(2,6-dioxo-3-piperidyl)-1-oxo-isoindolin-5-yl]methyl]urea]
DC50 (GSPT1): > 10 µM
GI50 (HeLa KRas G12C cells): > 10 µM

Structure (SMILES): C=C(F)C(=O)N1CCN(c2nc(OC[C@@H]3CCCN3CCOCCOCCOCCOCCOCCOCCOCCOCCOCCOCCOc3cc(Cl)cc(NC(=O)NCc4ccc5c(c4)CN(C4CCC(=O)NC4=O)C5=O)c3)nc3c2CCN(c2cccc4cccc(Cl)c24)C3)C[C@@H]1CC#N (stereo partly drawn) [Compound I-10, 1-[3-chloro-5-[2-[2-[2-[2-[2-[2-[2-[2-[2-[2-[2-[(2S)-2-[[7-(8-chloro-1-naphthyl)-4-[(3S)-3-(cyanomethyl)-4-(2-fluoroprop-2-enoyl)piperazin-1-yl]-6,8-dihydro-5H-pyrido[3,4-d]pyrimidin-2-yl]oxymethyl]pyrrolidin-1-yl]ethoxy]ethoxy]ethoxy]ethoxy]ethoxy]ethoxy]ethoxy]ethoxy]ethoxy]ethoxy]ethoxy]phenyl]-3-[[2-(2,6-dioxo-3-piperidyl)-1-oxo-isoindolin-5-yl]methyl]urea]
DC50 (GSPT1): 5 to 10 µM
GI50 (HeLa KRas G12C cells): 3 to 10 µM
